Laboratory results as given in patent US11629201B2, “PSMA-binding agents and uses thereof” (ITM Isotope Technologies Munich SE, priority 2017, dated 2023).

Experiments:
[1] = system: PSMA-positive PC-3 PIP cells; experiment: Cell uptake and internalization in PSMA-positive PC-3 PIP cells; format: cell-based; details: 2 h and 4 h time-point, PC-3 PIP cells
[2] = system: PC-3 PIP/flu tumor-bearing mice; experiment: Biodistribution studies in PC-3 PIP/flu tumor-bearing mice; details: for Tumor-to-blood / Tumor-to-kidney / Tumor-to-liver: PC-3 PIP tumor

Cc1ccc(CCCC(=O)NC(CC(=O)NC(CC(=O)NC(CC(=O)NC(CCCCNC(=O)CN2CCN(CC(=O)O)CCN(CC(=O)O)CCN(CC(=O)O)CC2)C(=O)NCC2CCC(C(=O)NC(Cc3ccc4ccccc4c3)C(=O)NCCCCC(NC(=O)NC(CCC(=O)O)C(=O)O)C(=O)O)CC2)C(=O)O)C(=O)O)C(=O)O)cc1 (centres unmarked) [^177Lu-PSMA-ALB-08, metal not drawn]
internalized fraction / internalization rate versus reference [1]: still comparable to ^177Lu-PSMA-617
Blood ([2]; 4 h p.i.): 0.41 ± 0.18 % IA/g
Bone ([2]; 4 h p.i.): 0.16 ± 0.03 % IA/g
Heart ([2]; 4 h p.i.): 0.19 ± 0.07 % IA/g
Intestines ([2]; 4 h p.i.): 0.20 ± 0.09 % IA/g
Kidneys ([2]; 4 h p.i.): 27.2 ± 5.93 % IA/g
Liver ([2]; 4 h p.i.): 0.27 ± 0.10 % IA/g
Lung ([2]; 4 h p.i.): 0.48 ± 0.21 % IA/g
Muscle ([2]; 4 h p.i.): 0.06 ± 0.03 % IA/g
PC-3 PIP Tumor ([2]; 4 h p.i.): 46.9 ± 16.7 % IA/g
PC-3 flu Tumor ([2]; 4 h p.i.): 0.25 ± 0.19 % IA/g
Salivary glands ([2]; 4 h p.i.): 0.19 ± 0.06 % IA/g
Spleen ([2]; 4 h p.i.): 0.53 ± 0.10 % IA/g
Stomach ([2]; 4 h p.i.): 0.40 ± 0.25 % IA/g
Tumor-to-blood ([2]; 4 h p.i.): 116 ± 9.46
Tumor-to-kidney ([2]; 4 h p.i.): 1.70 ± 0.22
Tumor-to-liver ([2]; 4 h p.i.): 177 ± 2.72
Blood ([2]; 24 h p.i.): 0.08 ± 0.01 % IA/g
Bone ([2]; 24 h p.i.): 0.07 ± 0.02 % IA/g
Heart ([2]; 24 h p.i.): 0.04 ± 0.01 % IA/g
Intestines ([2]; 24 h p.i.): 0.03 ± 0.01 % IA/g
Kidneys ([2]; 24 h p.i.): 13.9 ± 2.32 % IA/g
Liver ([2]; 24 h p.i.): 0.11 ± 0.02 % IA/g
Lung ([2]; 24 h p.i.): 0.09 ± 0.02 % IA/g
Muscle ([2]; 24 h p.i.): 0.02 ± 0.01 % IA/g
PC-3 PIP Tumor ([2]; 24 h p.i.): 33.0 ± 5.04 % IA/g
PC-3 flu Tumor ([2]; 24 h p.i.): 0.09 ± 0.05 % IA/g
Salivary glands ([2]; 24 h p.i.): 0.07 ± 0.05 % IA/g
Spleen ([2]; 24 h p.i.): 0.10 ± 0.03 % IA/g
Stomach ([2]; 24 h p.i.): 0.03 ± 0.01 % IA/g
Tumor-to-blood ([2]; 24 h p.i.): 421 ± 45.7
Tumor-to-kidney ([2]; 24 h p.i.): 2.39 ± 0.24
Tumor-to-liver ([2]; 24 h p.i.): 295 ± 40.1
Blood ([2]; 72 h p.i.): 0.06 ± 0.02 % IA/g
Bone ([2]; 72 h p.i.): 0.09 ± 0.05 % IA/g
Heart ([2]; 72 h p.i.): 0.03 ± 0.01 % IA/g
Intestines ([2]; 72 h p.i.): 0.02 ± 0.01 % IA/g
Kidneys ([2]; 72 h p.i.): 7.98 ± 0.62 % IA/g
Liver ([2]; 72 h p.i.): 0.12 ± 0.01 % IA/g
Lung ([2]; 72 h p.i.): 1.28 ± 2.02 % IA/g
Muscle ([2]; 72 h p.i.): 0.01 ± 0.01 % IA/g
PC-3 PIP Tumor ([2]; 72 h p.i.): 24.1 ± 5.37 % IA/g
PC-3 flu Tumor ([2]; 72 h p.i.): 0.09 ± 0.07 % IA/g
Salivary glands ([2]; 72 h p.i.): 0.03 ± 0.02 % IA/g
Spleen ([2]; 72 h p.i.): 0.11 ± 0.05 % IA/g
Stomach ([2]; 72 h p.i.): 0.02 ± 0.01 % IA/g
Tumor-to-blood ([2]; 72 h p.i.): 416 ± 89.5
Tumor-to-kidney ([2]; 72 h p.i.): 3.02 ± 0.68
Tumor-to-liver ([2]; 72 h p.i.): 207 ± 47.1

O=C(O)CCC(NC(=O)NC(CCCCNC(=O)C(Cc1ccc2ccccc2c1)NC(=O)C1CCC(CNC(=O)C(CCCCNC(=O)CN2CCN(CC(=O)O)CCN(CC(=O)O)CCN(CC(=O)O)CC2)NC(=O)CCCCCCC(=O)NC(CCCCNC(=O)CCCc2ccc(I)cc2)C(=O)O)CC1)C(=O)O)C(=O)O (centres unmarked) [^177Lu-PSMA-ALB-04, metal not drawn]
Tumor-to-blood ([2]; 1 h p.i.): 0.20 ± 0.02
Tumor-to-kidney ([2]; 1 h p.i.): 0.54 ± 0.09
Tumor-to-liver ([2]; 1 h p.i.): 0.33 ± 0.06
Blood ([2]; 24 h p.i.): 55.3 ± 3.10 % IA/g
Bone ([2]; 24 h p.i.): 8.88 ± 0.19 % IA/g
Heart ([2]; 24 h p.i.): 22.1 ± 3.70 % IA/g
Intestines ([2]; 24 h p.i.): 8.13 ± 1.31 % IA/g
Kidneys ([2]; 24 h p.i.): 41.5 ± 1.44 % IA/g
Liver ([2]; 24 h p.i.): 17.6 ± 2.04 % IA/g
Lung ([2]; 24 h p.i.): 40.1 ± 7.77 % IA/g
Muscle ([2]; 24 h p.i.): 5.82 ± 1.62 % IA/g
PC-3 PIP Tumor ([2]; 24 h p.i.): 82.8 ± 6.84 % IA/g
PC-3 flu Tumor ([2]; 24 h p.i.): 14.0 ± 0.60 % IA/g
Salivary glands ([2]; 24 h p.i.): 12.5 ± 0.42 % IA/g
Spleen ([2]; 24 h p.i.): 13.6 ± 1.90 % IA/g
Stomach ([2]; 24 h p.i.): 6.18 ± 0.95 % IA/g
Tumor-to-blood ([2]; 24 h p.i.): 1.50 ± 0.11
Tumor-to-kidney ([2]; 24 h p.i.): 2.00 ± 0.11
Tumor-to-liver ([2]; 24 h p.i.): 4.76 ± 0.67
Blood ([2]; 48 h p.i.): 38.2 ± 1.48 % IA/g
Bone ([2]; 48 h p.i.): 6.80 ± 0.67 % IA/g
Heart ([2]; 48 h p.i.): 13.6 ± 0.36 % IA/g
Intestines ([2]; 48 h p.i.): 7.27 ± 0.82 % IA/g
Kidneys ([2]; 48 h p.i.): 38.2 ± 4.10 % IA/g
Liver ([2]; 48 h p.i.): 13.1 ± 0.67 % IA/g
Lung ([2]; 48 h p.i.): 24.6 ± 2.02 % IA/g
Muscle ([2]; 48 h p.i.): 4.62 ± 0.38 % IA/g
PC-3 PIP Tumor ([2]; 48 h p.i.): 93.2 ± 12.4 % IA/g
PC-3 flu Tumor ([2]; 48 h p.i.): 12.6 ± 0.82 % IA/g
Salivary glands ([2]; 48 h p.i.): 10.6 ± 0.42 % IA/g
Spleen ([2]; 48 h p.i.): 14.0 ± 1.70 % IA/g
Stomach ([2]; 48 h p.i.): 5.04 ± 0.35 % IA/g
Tumor-to-blood ([2]; 48 h p.i.): 2.45 ± 0.41
Tumor-to-kidney ([2]; 48 h p.i.): 2.47 ± 0.50
Tumor-to-liver ([2]; 48 h p.i.): 7.16 ± 1.16
Blood ([2]; 96 h p.i.): 11.65 ± 1.22 % IA/g
Bone ([2]; 96 h p.i.): 2.54 ± 0.31 % IA/g
Heart ([2]; 96 h p.i.): 4.81 ± 0.29 % IA/g
Intestines ([2]; 96 h p.i.): 2.36 ± 0.17 % IA/g
Kidneys ([2]; 96 h p.i.): 15.3 ± 1.49 % IA/g
Liver ([2]; 96 h p.i.): 4.67 ± 0.82 % IA/g
Lung ([2]; 96 h p.i.): 9.96 ± 1.44 % IA/g
Muscle ([2]; 96 h p.i.): 1.56 ± 0.56 % IA/g
PC-3 PIP Tumor ([2]; 96 h p.i.): 61.4 ± 7.68 % IA/g
PC-3 flu Tumor ([2]; 96 h p.i.): 5.63 ± 0.37 % IA/g
Salivary glands ([2]; 96 h p.i.): 4.08 ± 0.44 % IA/g
Spleen ([2]; 96 h p.i.): 6.76 ± 0.59 % IA/g
Stomach ([2]; 96 h p.i.): 1.74 ± 0.11 % IA/g
Tumor-to-blood ([2]; 96 h p.i.): 5.29 ± 0.74
Tumor-to-kidney ([2]; 96 h p.i.): 4.03 ± 0.56
Tumor-to-liver ([2]; 96 h p.i.): 13.4 ± 2.88
Blood ([2]; 192 h p.i.): 3.75 ± 1.49 % IA/g
Bone ([2]; 192 h p.i.): 1.17 ± 0.61 % IA/g
Heart ([2]; 192 h p.i.): 1.73 ± 0.70 % IA/g
Intestines ([2]; 192 h p.i.): 0.67 ± 0.15 % IA/g
Kidneys ([2]; 192 h p.i.): 8.82 ± 3.83 % IA/g
Liver ([2]; 192 h p.i.): 2.45 ± 0.81 % IA/g
Lung ([2]; 192 h p.i.): 4.10 ± 1.77 % IA/g
Muscle ([2]; 192 h p.i.): 0.71 ± 0.54 % IA/g
PC-3 PIP Tumor ([2]; 192 h p.i.): 57.6 ± 17.3 % IA/g
PC-3 flu Tumor ([2]; 192 h p.i.): 3.31 ± 1.43 % IA/g
Salivary glands ([2]; 192 h p.i.): 1.96 ± 0.73 % IA/g
Spleen ([2]; 192 h p.i.): 5.22 ± 3.17 % IA/g
Stomach ([2]; 192 h p.i.): 0.56 ± 0.19 % IA/g
Tumor-to-blood ([2]; 192 h p.i.): 15.8 ± 3.55
Tumor-to-kidney ([2]; 192 h p.i.): 6.91 ± 2.24
Tumor-to-liver ([2]; 192 h p.i.): 23.9 ± 5.12
